The results in this text go back to ChEMBL document CHEMBL1128700 (J Med Chem, 1995).

The subject of test [1] is Human immunodeficiency virus type 1 reverse transcriptase (Human immunodeficiency virus 1), Q72547 [Y181C]. The test is described as follows: Percent inhibitory activity against Y181C HIV type I reverse transcriptase at a concentration of 1 uM.
For test [2], the target named is Human immunodeficiency virus type 1 reverse transcriptase (Human immunodeficiency virus 1) (UniProt Q72547). Put plainly: Percent inhibitory activity against wild type (WT) HIV type I reverse transcriptase at a concentration of 1 uM.
The target in test [3] is Human immunodeficiency virus type 1 reverse transcriptase (Human immunodeficiency virus 1, UniProt Q72547). The test is described as follows: Compound was evaluated for inhibition of WT HIV type I reverse transcriptase.

Structures are written as SMILES.

As for `O=C1Nc2c(COc3ccccc3O)ccnc2N(C2CC2)c2ncccc21`, the inhibition in test [1] worked out at 42%; in test [2], 59%. Besides, in test [3], the IC50 amounted to 460 nM.

On to `Cc1ccc(Cc2ccnc3c2NC(=O)c2cccnc2N3C2CC2)c(O)c1`, for which the figures for the inhibition in test [1] and in test [2] were 29% and 76%, respectively. Besides, it took 200 nM to reach half-maximal inhibition in test [3] (IC50).

With `O=C1Nc2c(COCCCc3ccccc3)ccnc2N(C2CC2)c2ncccc21`, the figures for the inhibition in test [1] and in test [2] were 20% and 29%, respectively.

`O=C(O)/C=C/c1ccnc2c1NC(=O)c1cccnc1N2C1CC1`: the inhibition in test [1] and in test [2] was 0% each time.

For the compound `O=C(O)CCc1ccnc2c1NC(=O)c1cccnc1N2C1CC1`, the inhibition is 8% in test [1] and 2% in test [2].

As to `O=C1Nc2c(CC3=CCNC3)ccnc2N(C2CC2)c2ncccc21`, the inhibition in test [1] is 26%; in test [2], 54%. Moreover, it took 640 nM to reach half-maximal inhibition in test [3] (IC50).

With `C=Cc1ccnc2c1NC(=O)c1cccnc1N2C1CC1`, the inhibition in test [1] stood at 16%; in test [2], 83%. The same compound yielded a half-inhibitory concentration (IC50) in test [3] of 110 nM.

For the compound `O=C1Nc2c(COCc3ccccc3)ccnc2N(C2CC2)c2ncccc21`, the inhibition in test [1] worked out at 37%; in test [2] it was 67%. This compound also registered an IC50 in test [3] of 270 nM.

As to `O=C1Nc2c(CCc3ccccc3)ccnc2N(C2CC2)c2ncccc21`, the inhibition in test [1] was 38%; in test [2] it was 36%.

`CCN1c2ncccc2C(=O)Nc2c(Cc3ccccc3)cc(O)nc21`: the inhibition in test [1] turned out to be 42%; in test [2] it was 67%.

Regarding `O=C1Nc2c(CN3CCCCC3)ccnc2N(C2CC2)c2ncccc21`, the inhibition in test [1] came out at 20%; in test [2], 29%.

Regarding `O=C1Nc2c(Cn3cccn3)ccnc2N(C2CC2)c2ncccc21`, the figures for the inhibition in test [1] and in test [2] were 5% and 36%, respectively. In test [3], this compound registered an IC50 of 2200 nM.

With `C=CCOCc1ccnc2c1NC(=O)c1cccnc1N2C1CC1`, the inhibition worked out at 29% in test [1] and 35% in test [2]. In test [3], this compound had an IC50 of 1410 nM.

In the case of `Cc1cccc(OCc2ccnc3c2NC(=O)c2cccnc2N3C2CC2)c1`, the inhibition in test [1] was 9%; in test [2] it was 38%. Moreover, in test [3], 2430 nM corresponded to half-maximal inhibition (IC50).

Consider `CCN1c2ncccc2C(=O)Nc2c(COc3ccccc3)cc(O)nc21`, for which the inhibition amounted to 20% in test [1] and 33% in test [2].

For `CCN1c2ncccc2C(=O)Nc2c(C=O)cc(O)nc21`, the inhibition is 6% in test [1] and 36% in test [2].

In the case of `O=C1Nc2c(CN3CCCC3)ccnc2N(C2CC2)c2ncccc21`, the inhibition in test [1] stood at 16%; in test [2], 51%. This compound registered an IC50 in test [3] of 700 nM.

Turning to `CCOCc1ccnc2c1NC(=O)c1cccnc1N2C1CC1`, the figures for the inhibition in test [1] and in test [2] were 29% and 41%, respectively. In addition, in test [3], the half-inhibitory concentration (IC50) was determined as 1300 nM.

With `O=C1Nc2c(/C=C/c3ccccc3)ccnc2N(C2CC2)c2ncccc21`, the inhibition turned out to be 25% in test [1] and 23% in test [2].

With `O=C1Nc2c(CO)ccnc2N(C2CC2)c2ncccc21`, the inhibition in test [1] is 4%; in test [2] it was 34%.

Turning to `CCN1c2ncccc2C(=O)Nc2c(Cc3ccccc3)cc(-c3cccc(OC)c3)nc21`, the inhibition in test [1] came out at 15%; in test [2], 20%.

Take `Cc1ccccc1OCc1ccnc2c1NC(=O)c1cccnc1N2C1CC1`: the inhibition in test [1] was found to be 28%; in test [2] it was 65%. For the same compound, the IC50 in test [3] worked out at 290 nM.

For the compound `O=C1Nc2c(COCCc3ccccc3)ccnc2N(C2CC2)c2ncccc21`, the inhibition was determined as 28% in test [1] and 55% in test [2]. This compound yielded an IC50 in test [3] of 420 nM.

Turning to `O=C1Nc2c(Cc3ccccc3)ccnc2N(C2CC2)c2ncccc21`, the results for the inhibition in test [1] and in test [2] were 8% and 73%, respectively. In test [3], this compound returned a concentration for half-maximal inhibition (IC50) of 140 nM.

With `COc1ccc(O)c(Cc2ccnc3c2NC(=O)c2cccnc2N3C2CC2)c1`, the inhibition in test [1] is 47%; in test [2] it was 42%. The compound further displayed a half-maximal inhibitory concentration (IC50) in test [3] of 850 nM.

Consider `CCOC(=O)/C=C/c1ccnc2c1NC(=O)c1cccnc1N2C1CC1`, for which the figures for the inhibition in test [1] and in test [2] were 22% and 27%, respectively.

Consider `O=C1Nc2c(CN3CCOCC3)ccnc2N(C2CC2)c2ncccc21`, for which the inhibition in test [1] was found to be 21%; in test [2], 50%. This compound came in with an IC50 in test [3] of 1030 nM.

With `CCN1c2ncccc2C(=O)Nc2c(COc3ccccc3)cc(-c3cccc(OC)c3)nc21`, the values for the inhibition in test [1] and in test [2] were 37% and 69%, respectively. This compound came in with an IC50 in test [3] of 490 nM.

As for `Cc1ccc(OCc2ccnc3c2NC(=O)c2cccnc2N3C2CC2)cc1`, the figures for the inhibition in test [1] and in test [2] were 33% and 55%, respectively. Moreover, the 50% inhibitory concentration (IC50) in test [3] stood at 580 nM.

Consider `O=C1Nc2c(CSCc3ccccc3)ccnc2N(C2CC2)c2ncccc21`, for which the inhibition turned out to be 28% in test [1] and 33% in test [2].

Consider `CCN1c2ncccc2C(=O)Nc2c(COCc3ccccc3)cc(O)nc21`, for which the inhibition in test [1] stood at 38%; in test [2], 83%.

As for `CCN1c2ncccc2C(=O)Nc2c(COCc3ccccc3)cc(OC)nc21`, the inhibition in test [1] was 26%; in test [2] it was 42%. Moreover, the IC50 in test [3] was 920 nM.

For `CCN1c2ncccc2C(=O)Nc2c(COc3ccccc3)cc(OC)nc21`, the inhibition in test [1] worked out at 17%; in test [2] it was 44%. The same compound yielded a concentration for half-maximal inhibition (IC50) in test [3] of 4000 nM.

For `N#Cc1ccc(OCc2ccnc3c2NC(=O)c2cccnc2N3C2CC2)cc1`, the inhibition worked out at 11% in test [1] and 57% in test [2]. Moreover, in test [3], the concentration for half-maximal inhibition (IC50) worked out at 410 nM.

For `CCN1c2ncccc2C(=O)Nc2c(CO)cc(OC)nc21`, the inhibition came to 24% in test [1] and 89% in test [2]. The compound also had an IC50 in test [3] of 50 nM.

As to `CCN1c2ncccc2C(=O)Nc2c(C3OCCCO3)cc(-c3cccc(OC)c3)nc21`, the inhibition in test [1] was found to be 7%; in test [2], 40%.

For `CCN1c2ncccc2C(=O)Nc2c(COCc3ccccc3)cc(-c3cccc(OC)c3)nc21`, the inhibition turned out to be 12% in test [1] and 0% in test [2].

With `CCOC(=O)CCc1ccnc2c1NC(=O)c1cccnc1N2C1CC1`, the inhibition in test [1] was 11%; in test [2], 13%.

Turning to `CCN1c2ncccc2C(=O)Nc2c(C=O)cc(OC)nc21`, the inhibition is 38% in test [1] and 78% in test [2]. Besides, the IC50 in test [3] was 240 nM.

Regarding `O=C1Nc2c(Cn3ccnc3)ccnc2N(C2CC2)c2ncccc21`, the inhibition in test [1] worked out at 20%; in test [2], 13%.

Consider `CCN1c2ncccc2C(=O)Nc2c(C3OCCCO3)cc(O)nc21`, for which the inhibition in test [1] and in test [2] was 0% in each case.

For `CCN1c2ncccc2C(=O)Nc2c(CO)cc(-c3cccc(OC)c3)nc21`, the inhibition stood at 0% in test [1] and 16% in test [2].

Take `O=C1Nc2c(COc3ccc([N+](=O)[O-])cc3)ccnc2N(C2CC2)c2ncccc21`: the inhibition in test [1] is 12%; in test [2] it was 43%. It took 1130 nM to reach half-maximal inhibition in test [3] (IC50).

Turning to `CCN1c2ncccc2C(=O)Nc2c(C3OCCCO3)cc(OC)nc21`, the inhibition in test [1] was found to be 22%; in test [2], 52%. This compound also displayed an IC50 in test [3] of 800 nM.

In the case of `CCN1c2ncccc2C(=O)Nc2c(Cc3ccccc3)cc(OC)nc21`, the inhibition in test [1] and in test [2] was 0% throughout.

One may read the inhibition as the relative decrease from the control value, in per cent. Read a high inhibition as strong suppression. Broadly, the IC50 is the point on the concentration scale where inhibition reaches its midpoint. High values mean a need for much substance, low ones inhibition by little substance.
